Results reported in patent publication US12441762B2, “Hepatitis c virus NS3/4A protease inhibitors” (priority 2019, dated 2025).

Assays:
Test in all cases: biochemical
[1] = target: T1, HCV NS3/4A protease D168A variant (Hepatitis C virus genotype 1a, UniProt P27958, C1185S/D1194A); format: biochemical
T1 construct: His-tag (cleaved yes); made in house; host or cells: Escherichia coli BL21(DE3), PET28a vector
Description: (§1) The HCV GT1a NS3/4A protease gene described in the Bristol Myers Squibb patent was synthesized by GenScript and cloned into a PET28a expression vector. Cys159 was mutated to a serine residue to prevent disulfide bond formation and facilitate crystallization. The D168A gene was engineered using the site-directed mutagenesis protocol from Stratagene. Protein expression and purification were carried out as previously described.
(§2) Km constants for GT1 and D168A protease were previously determined. […] Inner filter effect corrections were applied to the initial velocities (Vo) at each substrate concentration. Vo versus substrate concentration graphs were globally fit to the Michaelis-Menten equation to obtain the Km value.
(§3) For each assay, 2 nM of NS3/4A protease (GT1a and D168A) was pre-incubated at room temperature for 1 h with increasing concentration of inhibitors in assay buffer (50 mM Tris, 5% glycerol, 10 mM DTT, 0.6 mM LDAO, and 4% dimethyl sulfoxide, pH 7.5). Inhibition assays were performed in non-binding surface 96-well black half-area plates (Corning) in a reaction volume of 60 μL. […] Three independent data sets were collected for each inhibitor with each protease construct.

[2] = target: T2, wild-type HCV NS3/4A protease (GT1a) (Hepatitis C virus genotype 1a, UniProt P27958, C1185S); format: biochemical
T2 construct: His-tag (cleaved yes); made in house; host or cells: Escherichia coli BL21(DE3), PET28a vector
T2 sequence (P27958 1027-1208 C1185S): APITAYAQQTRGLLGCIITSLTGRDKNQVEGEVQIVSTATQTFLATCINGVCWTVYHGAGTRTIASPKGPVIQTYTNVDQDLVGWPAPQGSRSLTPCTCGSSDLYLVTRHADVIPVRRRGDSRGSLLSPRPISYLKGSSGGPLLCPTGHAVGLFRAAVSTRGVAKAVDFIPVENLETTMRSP
Description: as §1, §2, §3

[3] = test system: HCV NS3/4A protease D168A variant; format: biochemical, Hepatitis C virus; conditions: for Fold Change of D168A Ki with respect to GT1a wild-type: Table S1, value in parentheses
Description: as §1, §2, §3

HCV NS3/4A protease GT3 = HCV NS3/4A protease GT3 (Hepatitis C virus genotype 3a, UniProt Q81495)
Sequence of HCV NS3/4A protease GT3 (Q81495 1033-1214): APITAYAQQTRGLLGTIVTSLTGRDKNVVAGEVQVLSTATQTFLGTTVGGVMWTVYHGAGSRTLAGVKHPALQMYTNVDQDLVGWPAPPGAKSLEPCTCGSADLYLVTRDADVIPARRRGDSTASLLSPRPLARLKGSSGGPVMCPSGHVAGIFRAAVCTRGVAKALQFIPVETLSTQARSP
Sequence of HCV NS3/4A protease GT3 (Q81495 1664-1717): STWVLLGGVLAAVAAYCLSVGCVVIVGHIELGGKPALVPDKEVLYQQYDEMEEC

T1 sequence (P27958 1027-1208 C1185S/D1194A): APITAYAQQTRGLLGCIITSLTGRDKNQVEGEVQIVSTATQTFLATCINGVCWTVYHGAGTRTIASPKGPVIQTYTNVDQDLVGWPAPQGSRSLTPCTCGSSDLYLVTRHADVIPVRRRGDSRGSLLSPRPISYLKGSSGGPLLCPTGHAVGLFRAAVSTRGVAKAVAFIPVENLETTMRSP

SMILES	Ki [1] [nM]	Ki [2] [nM]	Fold Change of D168A Ki with respect to GT1a wild-type [3]	fold less potent than the methyl carbamate analog P4P5-3B ([3]; acetamide (3A) vs methyl carbamate (3B)) [fold]	fold loss in potency against D168A relative to WT [3] [fold]	fold more potent than grazoprevir towards D168A ([1]; compared to grazoprevir) [fold]	fold increase in potency against D168A compared to the parent compound [1] [fold]	fold increase in potency towards WT compared to the parent compound ([2]; compared to parent compound) [fold]	Ki (HCV NS3/4A protease GT3) [nM]
COc1ccc2nc(C)c(O[C@@H]3C[C@H]4C(=O)N[C@]5(C(=O)NS(=O)(=O)C6(C)CC6)C[C@H]5/C=C\CCCCC[C@H](NC(=O)[C@@H](NC(C)=O)C(C)(C)C)C(=O)N4C3)nc2c1 [Inhibitor P4P5-2A, (2R,6S,13aS,14aR,16aS,Z)-6-((S)-2-Acetamido-3,3-dimethylbutanamido)-2-((7-methoxy-3-methylquinoxalin-2-yl)oxy)-N-((1-methylcyclopropyl)sulfonyl)-5,16-dioxo-1,2,3,6,7,8,9,10,11,13a,14,15,16,16a-tetradecahydrocyclopropa[e]pyrrolo[1,2-a][1,4]diazacyclopentadecine-14a(5H)-carboxamide]	215 ± 16	23.9 ± 1.7	(9) fold	–	–	–	–	–	–
COC(=O)N[C@H](C(=O)N[C@H]1CCCCC/C=C\[C@@H]2C[C@@]2(C(=O)NS(=O)(=O)C2(C)CC2)NC(=O)[C@@H]2C[C@@H](Oc3nc4cc(OC)ccc4nc3C)CN2C1=O)C(C)(C)C [Inhibitor P4P5-2B, Methyl ((S)-1-(((2R,6S,13aS,14aR,16aS,Z)-2-((7-methoxy-3-methylquinoxalin-2-yl)oxy)-14a-(((1-methylcyclopropyl)sulfonyl)carbamoyl)-5,16-dioxo-1,2,3,5,6,7,8,9,10,11,13a,14,14a,15,16,16a-hexadecahydrocyclopropa[e]pyrrolo[1,2-a][1,4]diazacyclopentadecin-6-yl)amino)-3,3-dimethyl-1-oxobutan-2-yl)carbamate]	201 ± 15	29.5 ± 1.9	(8) fold	–	–	–	–	–	–
COc1ccc2nc(C)c(O[C@@H]3C[C@H]4C(=O)N[C@]5(C(=O)NS(=O)(=O)C6(C)CC6)C[C@H]5/C=C\CCCCC[C@H](NC(=O)[C@@H](NC(C)=O)C5CCCC5)C(=O)N4C3)nc2c1 [Inhibitor P4P5-3A, (2R,6S,13aS,14aR,16aS, Z)-6-((S)-2-acetamido-2-cyclopentylacetamido)-2-((7-methoxy-3-methylquinoxalin-2-yl)oxy)-N-((1-methylcyclopropyl)sulfonyl)-5,16-dioxo-1,2,3,6,7,8,9,10,11,13a,14,15,16,16a-tetradecahydrocyclopropa[e]pyrrolo[1,2-a][1,4]diazacyclopentadecine-14a(5H)-carboxamide]	87.3	2.23 ± 0.07	(39) fold	~3	–	–	–	–	–
COC(=O)N[C@H](C(=O)N[C@H]1CCCCC/C=C\[C@@H]2C[C@@]2(C(=O)NS(=O)(=O)C2(C)CC2)NC(=O)[C@@H]2C[C@@H](Oc3nc4cc(OC)ccc4nc3C)CN2C1=O)C1CCCC1 [Inhibitor P4P5-3B, Methyl ((S)-1-cyclopentyl-2-(((2R,6S,13aS,14aR,16aS,Z)-2-((7-methoxy-3-methylquinoxalin-2-yl)oxy)-14a-(((1-methylcyclopropyl)sulfonyl)carbamoyl)-5,16-dioxo-1,2,3,5,6,7,8,9,10,11,13a,14,14a,15,16,16a-hexadecahydrocyclopropa[e]pyrrolo[1,2-a][1,4]diazacyclopentadecin-6-yl)amino)-2-oxoethyl)carbamate]	31.6 ± 2.1	3.54 ± 0.13	(9) fold	–	–	–	–	–	–
CC[C@H](C)[C@H](NC(C)=O)C(=O)N[C@H]1CCCCC/C=C\[C@@H]2C[C@@]2(C(=O)NS(=O)(=O)C2(C)CC2)NC(=O)[C@@H]2C[C@@H](Oc3nc4cc(OC)ccc4nc3C)CN2C1=O [Inhibitor P4P5-4, (2R,6S,13aS,14aR,16aS,Z)-6-((2S,3S)-2-acetamido-3-methylpentanamido)-2-((7-methoxy-3-methylquinoxalin-2-yl)oxy)-N-((1-methylcyclopropyl)sulfonyl)-5,16-dioxo-1,2,3,6,7,8,9,10,11,13a,14,15,16,16a-tetradecahydrocyclopropa[e]pyrrolo[1,2-a][1,4]diazacyclopentadecine-t4a(5H)-carboxamide]	81	7.1 ± 0.24	(11) fold	–	–	–	–	–	–
COC(=O)NC1(C(=O)N[C@H]2CCCCC/C=C\[C@@H]3C[C@@]3(C(=O)NS(=O)(=O)C3(C)CC3)NC(=O)[C@@H]3C[C@@H](Oc4nc5cc(OC)ccc5nc4C)CN3C2=O)CCCC1 [Inhibitor P4P5-5, Methyl (1-(((2R,6S,13aS,14aR,16aS,Z)-2-((7-methoxy-3-methylquinoxalin-2-yl)oxy)-14a-(((1-methylcyclopropyl)sulfonyl)carbamoyl)-5,16-dioxo-1,2,3,5,6,7,8,9,10,11,13a,14,14a,15,16,16a-hexadecahydrocyclopropa[e]pyrrolo[1,2-a][1,4]diazacyclopentadecin-6-yl)carbamoyl)cyclopentyl)carbamate]	931 ± 70	31 ± 2.74	(30) fold	–	30	–	–	–	–
COC(=O)N[C@H](C(=O)N[C@H]1CCCCC/C=C\[C@@H]2C[C@@]2(C(=O)NS(=O)(=O)C2(C)CC2)NC(=O)[C@@H]2C[C@@H](Oc3nc4cc(OC)ccc4nc3C)CN2C1=O)C1CCCCC1 [Inhibitor P4P5-6, Methyl ((S)-1-cyclohexyl-2-(((2R,6S,13aS,14aR,16aS,Z)-2-((7-methoxy-3-methylquinoxalin-2-yl)oxy)-14a-(((1-methylcyclopropyl)sulfonyl)carbamoyl)-5,16-dioxo-1,2,3,5,6,7,8,9,10,11,13a,14,14a,15,16,16a-hexadecahydrocyclopropa[e]pyrrolo[1,2-a][1,4]diazacyclopentadecin-6-yl)amino)-2-oxoethyl)carbamate]	9.68 ± 0.64	0.91 ± 0.38	(11) fold	–	–	5	–	–	–
CCC1(OC(=O)N[C@H]2CCCCC/C=C\[C@@H]3C[C@@]3(C(=O)NS(=O)(=O)C3(C)CC3)NC(=O)[C@@H]3C[C@@H](Oc4nc5cc(OC)ccc5nc4C)CN3C2=O)CCCC1 [NR01-97, 1-Ethylcyclopentyl ((2R,6S,13aS,14aR,16aS, Z)-2-((7-methoxy-3-methylquinoxalin-2-yl)oxy)-14a-(((1-methylcyclopropyl)sulfonyl)carbamoyl)-5,16-dioxo-1,2,3,5,6,7,8,9,10,11,13a,14,14a,15,16,16a-hexadecahydrocyclopropa[e]pyrrolo[1,2-a][1,4]diazacyclopentadecin-6-yl) carbamate]	21.7 ± 2.3	1.29 ± 0.05	(17) fold	–	–	–	~3	–	–
COc1ccc2nc(C)c(O[C@@H]3C[C@H]4C(=O)N[C@]5(C(=O)NS(=O)(=O)C6(C)CC6)C[C@H]5/C=C\CCCCC[C@H](NC(=O)OC5(C)CC5)C(=O)N4C3)nc2c1 [NR02-24, 1-Methylcyclopropyl ((2R,6S,13aS,14aR,16aS,Z)-2-((7-methoxy-3-methylquinoxalin-2-yl)oxy)-14a-(((1-methylcyclopropyl)sulfonyl)carbamoyl)-5,16-dioxo-1,2,3,5,6,7,8,9,10,11,13a,14,14a,15,16,16a-hexadecahydrocyclopropa[e]pyrrolo [1,2-a][1,4]diazacyclopentadecin-6-yl)carbamate]	27.9 ± 4.1	4.44 ± 0.3	(6) fold	–	–	–	~2	–	–
COc1ccc2nc(C)c(O[C@@H]3C[C@H]4C(=O)N[C@]5(C(=O)NS(=O)(=O)C6(C)CC6)C[C@H]5/C=C\CCCCC[C@H](NC(=O)OC5(C)CCC5)C(=O)N4C3)nc2c1 [NR02-61, 1-Methylcyclobutyl ((2R,6S,13aS,14aR,16aS,Z)-2-((7-methoxy-3-methylquinoxalin-2-yl)oxy)-14a-(((1-methylcyclopropyl)sulfonyl)carbamoyl)-5,16-dioxo-1,2,3,5,6,7,8,9,10,11,13a,14,14a,15,16,16a-hexadecahydrocyclopropa[e]pyrrolo [1,2-a][1,4]diazacyclopentadecin-6-yl)carbamate]	46.4 ± 3.4	1.4 ± 0.13	(33) fold	–	–	–	–	4	–
COc1ccc2nc(C(F)(F)F)c(O[C@@H]3C[C@H]4C(=O)N[C@]5(C(=O)NS(=O)(=O)C6(C)CC6)C[C@H]5/C=C\CCCCC[C@H](NC(=O)O[C@@H]5C[C@@H]6C[C@@H]6C5)C(=O)N4C3)nc2c1 [NR04-49, (1R,3R,5S)-Bicyclo[3.1.0]hexan-3-yl ((2R,6S,13aS,14aR,16aS,Z)-2-((7-methoxy-3-(trifluoromethyl)quinoxalin-2-yl)oxy)-14a-(((1-methylcyclopropyl)sulfonyl)carbamoyl)-5,16-dioxo-1,2,3,5,6,7,8,9,10,11,13a,14,14a,15,16,16a-hexadecahydrocyclopropa[e]pyrrolo[1,2-a][1,4]diazacyclopentadecin-6-yl)carbamate]	–	–	–	–	–	–	–	–	170 ± 13
